Tests used:
VMAT2 [1] = target: VMAT2 (Rattus norvegicus, UniProt Q01827); type: cell-based; conditions: for inhibitory effect on VMAT2 transport (FFN206 uptake) in screen: tested compound 10 µM, FFN206 1 µM, 30 min preincubation, 60 min uptake
VMAT2-HEK cells = experiment: Fluorescence microscopy of FFN206 accumulation in VMAT2-HEK cells; type: cell-based, human
VMAT = conditions: cited from earlier work; for IC50: read-out: IC50, inhibiting [3H]DA uptake, rat brain vesicles
VMAT2 [2] = conditions: endogenous substrate; cited from earlier work

VMAT2 (Rattus norvegicus, UniProt Q01827), sequence (Q01827 whole entry): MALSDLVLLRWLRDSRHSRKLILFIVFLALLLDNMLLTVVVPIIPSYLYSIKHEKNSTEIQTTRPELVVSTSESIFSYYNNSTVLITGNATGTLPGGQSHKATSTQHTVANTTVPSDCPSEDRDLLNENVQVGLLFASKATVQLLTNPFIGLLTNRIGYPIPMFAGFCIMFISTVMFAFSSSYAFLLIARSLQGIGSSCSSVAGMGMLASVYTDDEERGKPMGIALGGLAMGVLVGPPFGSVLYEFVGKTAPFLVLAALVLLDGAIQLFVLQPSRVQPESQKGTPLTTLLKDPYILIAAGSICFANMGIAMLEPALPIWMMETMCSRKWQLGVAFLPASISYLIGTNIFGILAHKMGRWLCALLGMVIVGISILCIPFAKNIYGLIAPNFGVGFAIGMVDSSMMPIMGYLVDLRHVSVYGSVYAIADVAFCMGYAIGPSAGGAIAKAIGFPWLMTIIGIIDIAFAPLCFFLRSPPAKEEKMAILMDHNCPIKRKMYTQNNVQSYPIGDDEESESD

## CCN(CC)CCCC(C)Nc1ccnc2cc(Cl)ccc12 (stereo not shown) [Chloroquine, chloroquine]
VMAT2 [1]
  inhibitory effect on VMAT2 transport (FFN206 uptake) in screen: reduces VMAT2-dependent uptake
VMAT2-HEK cells; 100 µM, within 3 minutes of treatment, cells pre-loaded with FFN206 5 µM
  effect on punctate FFN206 fluorescence signal: completely abolished

## C[C@@H](N)Cc1ccccc1 [R(−)-amphetamine]
VMAT
  IC50: 29 µM

## C[C@H](N)Cc1ccccc1 [S(+)-amphetamine]
VMAT
  IC50: 3.27 µM

## COc1cc2c(cc1OC)C1CC(=O)C(CC(C)C)CN1CC2 (stereo not shown) [TBZ, tetrabenazine]
VMAT2-HEK cells; inhibitor 2 µM, 1 hr preincubation then coincubation, FFN206 5 µM, 2 hr
  FFN206 uptake in VMAT2-HEK cells pre-treated with inhibitor: Negligible uptake of FFN206

## c1ccc(CN2CCNCC2)cc1 [benzylpiperazine]
VMAT2 [1]
  inhibitory effect on VMAT2 transport (FFN206 uptake) in screen: no or weak inhibitory effects
VMAT
  activity in inhibiting vesicular uptake of [3H]DA by VMAT: inactive

## COC(=O)[C@H]1[C@@H](OC(=O)c2ccccc2)C[C@@H]2CC[C@H]1N2C [cocaine]
VMAT2 [1]; 96-well fluorometric assay, VMAT2-HEK cells
  inhibition of FFN206 uptake (negative control): no detectable inhibition
VMAT2 [1]
  inhibitory effect on VMAT2 transport (FFN206 uptake) in screen: no or weak inhibitory effects
VMAT
  activity in inhibiting vesicular uptake of [3H]DA by VMAT: inactive

## CCN(CC)C(C)C(=O)c1ccccc1 (stereo not shown) [diethylpropion]
VMAT2 [1]
  inhibitory effect on VMAT2 transport (FFN206 uptake) in screen: no or weak inhibitory effects
VMAT
  activity in inhibiting vesicular uptake of [3H]DA by VMAT: inactive

## NCCc1ccc(O)c(O)c1 [dopamine]
VMAT2 [2]
  IC50: 0.92 ± 0.05 µM
  Km: 0.82 to 0.95 µM

## CC(C)(N)Cc1ccccc1 [phentermine]
VMAT2 [1]
  inhibitory effect on VMAT2 transport (FFN206 uptake) in screen: no or weak inhibitory effects
VMAT
  activity in inhibiting vesicular uptake of [3H]DA by VMAT: inactive
